Laboratory results taken from US20030232101A1, “Topical formulations of resorcinols and cannibinoids and methods of use” (Immugen Pharmaceuticals, Inc., priority 2002, published 2003).
Entries after “also recorded” stand apart in the source; their conditions may differ. Like-named read-outs stand apart in the source and are kept apart here.

Tests used:
Type in all cases: cell-based
HIV-1 = assay: HeLa CD4 LTR β-gal HIV-1 attachment assay (Experimental Example 1); details: for IC50: Human immunodeficiency virus 1, HeLa; for inhibition of HIV attachment/entry: following a 24 h pre-incubation
[1] = Compound toxicity in the attachment assay, sister plates, MTS dye reduction; details: human, HeLa CD4 LTR β-gal cells, read-out: TC50
Description: At assay termination the assay plates were stained with the soluble tetrazolium-based dye MTS (CellTiter96® Reagent Promega) to determine cell viability and quantify compound toxicity. MTS is metabolized by the mitochondria enzymes of metabolically active cells to a soluble formazan product, allowing the rapid quantitative analysis cell viability and compound cytotoxicity. […] At termination of the assay 20 μL of MTS reagent was added per well and incubated for 4 h at 37° C. Adhesive plate sealers were used in place of the lids, the sealed plate was inverted several times to mix the soluble formazan product and the plate was read spectrophotometrically at 490 nm with a Molecular Devices Vmax plate reader.
The attachment assay was performed with the HeLa CD4 LTR β-gal cells available from the AIDS Research and Reference Reagent Repository. […] HeLa CD4 LTR β-gal cells express cell surface CD4 and contain an LTR β-galactosidase reporter construct. Upon infection either the Tat protein incorporated into the virion or new Tat produced following virus integration and transcription trans-activates the LTR β-gal reporter, leading to expression of the β-galactosidase enzyme. HeLa CD4 LTR β-gal cells are routinely cultured with the required selection antibiotics and screened for mycoplasma contamination. Twenty-four h prior to initiation of the assay cells were trypsinized, counted and 1×10^4 cells placed in a 0.2 cm well in media without selection antibiotics. […] A known titer of virus was then added to the wells and the incubation continued for 1 h. At the end of the incubation the wells were washed 6 times with media and the culture continued for 48 h. At 48 h the wells were washed one time with PBS and β-galactosidase enzyme expression determined by chemiluminescence per manufacturers instructions (Tropix Gal-screen™, Tropix, Bedford, Mass.). Compound toxicity was monitored on sister plates using MTS dye reduction.

HIV-1 (96USHIPS7 strain) = assay: HIV attachment assay in PBMCs (cell-associated p24); details: 15 μM
Description: ELISA kits were purchased from Coulter Electronics. The assay was performed according to the manufacturer's instructions. Control curves were generated in each assay to accurately quantitate the amount of p24 antigen in each sample. For experiments using cell lysates. Fifty thousand (5×10^4) viable cells were lysed in Coulter ELISA buffer and subjected to 1 round of freeze/thawed to liberate trapped p24 and p24 detected per manufacturers instructions. HIV capsid protein (p24) was quantitated spectrophotometrically at 450 nm using a Molecular Devices Vmax plate reader using a standard curve. Final concentrations were calculated from the optical density values using the Molecular Devices Soft Max software package.
The attachment assay with PBMCs was performed as follows. Briefly, 1×10^6 PHA/IL-2 PBMCs were incubated for 0, 2, 4 and 24 hours with IMG compounds and cannabidiol in polypropylene tubes. A pre-titered amount of HIV-1 (96USHIPS7 strain, obtained from the AIDS Research and Reference Reagent Program ) was added in the presence of compound and incubated for 3 h at 37° C. After incubation the cultures were washed 3 times (400×g, 10 min, 4° C.) with media (1:25,000 dilution of input p24), the cell pellets lysed with p24 lysing buffer (Coulter) and p24 content determined by ELISA.
PBMCs pretreated with compounds for 0, 2, 4, and 24 were incubated with cell-free HIV-1 for 3 h and the excess unbound HIV removed. The assessed the amount of HIV bound to the cell was then assessed by measuring cell-associated p24 content of total cell lysates.

Structure (SMILES) | IC50 (HIV-1; Experiment 1, pretreat 0 h) | IC50 (HIV-1; Experiment 1, pretreat 4 h) | IC50 (HIV-1; Experiment 1, pretreat 24 h) | IC50 (HIV-1; Experiment 2, pretreat 0 h) | IC50 (HIV-1; Experiment 2, pretreat 4 h) | IC50 (HIV-1; Experiment 2, pretreat 24 h) | inhibition of HIV attachment/entry (HIV-1) | Comment: transient suppression lost at lower concentrations (HIV-1; pretreat 4 h) | Comment: suppression of β-galactosidase activity (HIV-1; pretreat 24 h) | CC50 at 48 h ([1]; Experiment 1, pretreat 0 h) | CC50 at 48 h ([1]; Experiment 1, pretreat 4 h) | CC50 at 48 h ([1]; Experiment 1, pretreat 24 h) | CC50 at 48 h ([1]; Experiment 2, pretreat 0 h) | CC50 at 48 h ([1]; Experiment 2, pretreat 4 h) | CC50 at 48 h ([1]; Experiment 2, pretreat 24 h) | % Control (HIV-1 (96USHIPS7 strain); time 0 h) | pg p24 (HIV-1 (96USHIPS7 strain); time 0 h) | % Control (HIV-1 (96USHIPS7 strain); time 2 h) | pg p24 (HIV-1 (96USHIPS7 strain); time 2 h) | % Control (HIV-1 (96USHIPS7 strain); time 4 h) | also measured
Cc1c(O)cc(C(C)(C)CCCC(C)C)cc1O [IMG510, 2-Methyl-5-(1,1,5-trimethylhexyl)resorcinol] | > 50 µM | > 50 µM | 0.14 µM | > 50 µM | > 50 µM | 11.5 µM | consistent inhibition | transient suppression of virus replication; also recorded: Transient suppression lost with at lower | Suppression of β-galactosidase activity | > 50 µM | > 50 µM | > 50 µM | > 50 µM | > 50 µM | 39.4 µM | 91.1% | 350 pg | 85.7% | 329 pg | 71.4% | β-galactosidase production relative to background (cells alone+compounds) (HIV-1; following 24 h exposure): suppressed β-galactosidase production below background; pg p24 (HIV-1 (96USHIPS7 strain); time 4 h): 274 pg; % Control (HIV-1 (96USHIPS7 strain); time 24 h): 88.3%; pg p24 (HIV-1 (96USHIPS7 strain); time 24 h): 339 pg
Cc1ccc2c(c1)-c1c(O)cc(C(C)(C)CCCC(C)C)cc1OC2(C)C [IMG511, 3-Norpentyl-3-(1,1,5-trimethylhexyl)cannabinol] | 25 µM | 9.5 µM | 2.5 µM | < 0.16 µM | 8.3 µM | 7.1 µM | consistent inhibition | Transient suppression lost with at lower | Suppression of β-galactosidase activity | > 50 µM | > 50 µM | > 50 µM | > 50 µM | > 50 µM | 11.1 µM | 75.5% | 290 pg | 85.4% | 328 pg | 76.6% | β-galactosidase production relative to background (cells alone+compounds) (HIV-1; at all times): suppressed β-galactosidase production below background; Comment: suppression of β-galactosidase activity (HIV-1; pretreat 0 h): Suppression of β-galactosidase activity; Comment: suppression of β-galactosidase activity (HIV-1; pretreat 4 h): Suppression of β-galactosidase activity,; Comments: effect on HIV attachment (HIV-1 (96USHIPS7 strain); pretreatment 0, 2, 4, 24 h): No Significant effect; pg p24 (HIV-1 (96USHIPS7 strain); time 4 h): 294 pg; % Control (HIV-1 (96USHIPS7 strain); time 24 h): 91.7%; pg p24 (HIV-1 (96USHIPS7 strain); time 24 h): 352 pg
